One compound from patent US11976046B1, “4-(4,5-bis(4-bromophenyl)-2-(4-methoxyphenyl)-1H-imidazol-1-yl)benzoic acid as an antimicrobial compound” (KING FAISAL UNIVERSITY, priority 2023, dated 2024) can be followed below.

The test has as its system different microbes. Description: agar plate disc-diffusion antimicrobial testing. The test is classed as cell-based. The note with it: against different microbes; screened against gram-positive Bacillus cereus and Staphylococcus aureus, gram-negative Pseudomonas aeruginosa and Escherichia coli, fungi Aspergillus flavus and Chrysosporium keratinophilum. How it is done:
The agar plate disc-diffusion method was applied. Sterilized filter papers (6 mm in diameter) were wetted with 10 μL of a solution of 4-(4,5-bis(4-bromophenyl)-2-(4-methoxyphenyl)-1H-imidazol-1-yl)benzoic acid (V) to be tested, containing 10 mg/mL in DMSO, and the discs were allowed to air dry. The discs were then placed onto the surface of agar plates (nutrient agar for bacteria and Sabouraud's dextrose agar for fungi) seeded with the test organism. Each plate contained 15 mL of the agar medium, previously seeded with 0.2 mL of the broth culture of each organism pregrown for 18 hours. The plates were incubated at 37° C. for 48 hours, and 72 hours for fungi. The inhibition zones was measured in mm. Discs impregnated with DMSO were used as a control, and its inhibition zone was subtracted from the tested compound actual inhibition zone.

Molecules are shown by their SMILES.

For `COc1ccc(-c2nc(-c3ccc(Br)cc3)c(-c3ccc(Br)cc3)n2-c2ccc(C(=O)O)cc2)cc1` [V, 4-(4,5-bis(4-bromophenyl)-2-(4-methoxyphenyl)-1H-imidazol-1-yl)benzoic acid], the antimicrobial activities entry was “excellent antimicrobial activities”.
